Assay results as given in ChEMBL document CHEMBL1201862, “PubChem BioAssay data set” (2004).
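96-well plates; 48 h exposure; 5 concentrations. Endpoints by linear interpolation between flanking doses. Not reached: highest tested concentration assigned. GI50 marks 50% less growth.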 Activity calls are given as the source filed them. Rule as the data show it: active = GI50 up to about 1.1 µM and inactive = higher.

What was measured:
Assay in all cases: NCI anticancer screen, dose series, 48 h
SNB-78 = tested on: SNB-78
M19-MEL = tested on: M19-MEL
DLD-1 = tested on: DLD-1
LXFL 529 = tested on: LXFL 529
XF498 = tested on: XF498
KM-20L2 = tested on: KM-20L2
DMS-273 = tested on: DMS-273
HOP-18 = tested on: HOP-18
RXF 631 = tested on: RXF 631

Row | SMILES | GI50 (SNB-78) | GI50 (M19-MEL) | GI50 (DLD-1) | GI50 (LXFL 529) | GI50 (XF498) | GI50 (KM-20L2) | GI50 (DMS-273) | GI50 (HOP-18) | GI50 (RXF 631)
1 | COc1ccc(/C=C2/C(=O)N(C(=O)c3ccccc3O)N=C2C)cc1OC | 0.0453 µM (active) | 1.29 µM (inactive) | 0.23 µM (active) | 0.303 µM (active) | 1.68 µM (inactive) | 24.9 µM (inactive) | – | – | –
2 | Cc1ccc(C)c(NC(=O)C(=O)C2C(=O)N(c3ccccc3)N=C2N)c1 (stereo unspecified) | > 100 µM (inactive) | > 100 µM (inactive) | > 100 µM (inactive) | > 100 µM (inactive) | > 100 µM (inactive) | > 100 µM (inactive) | > 100 µM (inactive) | > 100 µM (inactive) | > 100 µM (inactive)
3 | C=CCN(N=O)C(=O)NCCCCC(NC(C)=O)C(=O)NCc1ccccc1 (stereo unspecified) | – | > 100 µM (inactive) | – | > 100 µM (inactive) | > 100 µM (inactive) | > 100 µM (inactive) | > 100 µM (inactive) | 80.7 µM (inactive) | > 100 µM (inactive)
4 | O=C1C(c2ccc(Br)cc2)=[N+]([O-])c2ccccc21 | – | 9.62 µM (inactive) | 8.51 µM (inactive) | 5.16 µM (inactive) | 17.5 µM (inactive) | 20.7 µM (inactive) | – | 11.9 µM (inactive) | –
5 | O=C1CCC(=O)N1Sc1ccccc1 | > 100 µM (inactive) | > 100 µM (inactive) | > 100 µM (inactive) | – | – | > 100 µM (inactive) | > 100 µM (inactive) | – | > 100 µM (inactive)
6 | CC(=O)/C=C1/c2ccccc2N(C(C)=O)C1O (stereo unspecified) | > 100 µM (inactive) | > 100 µM (inactive) | > 100 µM (inactive) | > 100 µM (inactive) | – | > 100 µM (inactive) | > 100 µM (inactive) | > 100 µM (inactive) | –
7 | Cc1cc(C)c(N)c(C)c1N | > 100 µM (inactive) | > 100 µM (inactive) | > 100 µM (inactive) | > 100 µM (inactive) | – | > 100 µM (inactive) | > 100 µM (inactive) | > 100 µM (inactive) | –
8 | CC(C)c1cccc(C(C)C)c1NC(=O)C(=O)CC(=O)CC(c1ccccc1)c1c(O)oc2ccccc2c1=O (stereo unspecified) | – | – | > 100 µM (inactive) | – | – | > 100 µM (inactive) | – | – | –
9 | O=c1nc2occc2cn1C1CC(O)C(CO)O1 (stereo unspecified) | > 100 µM (inactive) | > 100 µM (inactive) | > 100 µM (inactive) | > 100 µM (inactive) | > 100 µM (inactive) | > 100 µM (inactive) | > 100 µM (inactive) | > 100 µM (inactive) | > 100 µM (inactive)
10 | COc1ccc(C2=C(Cl)c3cc(OC)c(OC)cc3C2OC)cc1OC (stereo unspecified) | > 100 µM (inactive) | > 100 µM (inactive) | 17.9 µM (inactive) | 52.7 µM (inactive) | > 100 µM (inactive) | > 100 µM (inactive) | 27.4 µM (inactive) | > 100 µM (inactive) | –
11 | C=C(CN(C)C)C(=O)c1cc(C)ccc1C | 26.9 µM (inactive) | 4.81 µM (inactive) | 2.28 µM (inactive) | 1.62 µM (inactive) | 17.9 µM (inactive) | 23 µM (inactive) | 11.7 µM (inactive) | 4.13 µM (inactive) | –
12 | Cc1[nH]c2cc([N+](=O)[O-])ccc2c1[N+](=O)[O-] | – | – | 22.6 µM (inactive) | 17.2 µM (inactive) | 20.7 µM (inactive) | 27.4 µM (inactive) | – | – | –
13 | CCCCN[C@H]1C2C3CC4C5CC(C42)C1(C)C53 (stereo partly specified) | > 100 µM (inactive) | > 100 µM (inactive) | > 100 µM (inactive) | > 100 µM (inactive) | – | > 100 µM (inactive) | > 100 µM (inactive) | > 100 µM (inactive) | –
